Data set [1] relates to COX–2. As to conditions: cited from earlier work.
For data set [2] the following is noted: cited from earlier work.
A further data set concerns the target T1, ovine recombinant COX–1 (Ovis aries, UniProt P05979).
T1 sequence (P05979 25-600): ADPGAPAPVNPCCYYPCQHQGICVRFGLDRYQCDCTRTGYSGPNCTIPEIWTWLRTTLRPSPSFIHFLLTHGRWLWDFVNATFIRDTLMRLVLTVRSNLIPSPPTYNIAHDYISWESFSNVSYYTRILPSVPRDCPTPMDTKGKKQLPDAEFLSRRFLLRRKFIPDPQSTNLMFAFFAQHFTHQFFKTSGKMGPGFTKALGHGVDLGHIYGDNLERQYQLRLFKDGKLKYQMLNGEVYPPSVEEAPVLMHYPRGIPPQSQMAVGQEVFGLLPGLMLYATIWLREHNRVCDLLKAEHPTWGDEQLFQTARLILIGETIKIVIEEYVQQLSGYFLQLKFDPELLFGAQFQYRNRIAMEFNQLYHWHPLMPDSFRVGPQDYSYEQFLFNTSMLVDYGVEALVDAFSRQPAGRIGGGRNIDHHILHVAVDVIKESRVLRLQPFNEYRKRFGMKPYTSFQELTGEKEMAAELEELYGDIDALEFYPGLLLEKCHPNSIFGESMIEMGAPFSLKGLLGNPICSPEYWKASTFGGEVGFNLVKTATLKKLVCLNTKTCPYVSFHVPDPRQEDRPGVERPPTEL
Put plainly: cell-free COX–1 enzyme assay (PGE2 formation, LC-MS). In kind it is biochemical. Also noted: purchased Cayman Chemicals/ Biomol, Hamburg, Germany. The note with it: for IC50 / IC50 (95% CI), COX–1 enzyme assay: calculated based on PGE2, n = 3; for IC50: read-out: IC50 (95% CI), COX–1 enzyme assay.

Data set [3] concerns the target T2, COX–2 (Homo sapiens, UniProt P35354).
T2 sequence (P35354 18-604): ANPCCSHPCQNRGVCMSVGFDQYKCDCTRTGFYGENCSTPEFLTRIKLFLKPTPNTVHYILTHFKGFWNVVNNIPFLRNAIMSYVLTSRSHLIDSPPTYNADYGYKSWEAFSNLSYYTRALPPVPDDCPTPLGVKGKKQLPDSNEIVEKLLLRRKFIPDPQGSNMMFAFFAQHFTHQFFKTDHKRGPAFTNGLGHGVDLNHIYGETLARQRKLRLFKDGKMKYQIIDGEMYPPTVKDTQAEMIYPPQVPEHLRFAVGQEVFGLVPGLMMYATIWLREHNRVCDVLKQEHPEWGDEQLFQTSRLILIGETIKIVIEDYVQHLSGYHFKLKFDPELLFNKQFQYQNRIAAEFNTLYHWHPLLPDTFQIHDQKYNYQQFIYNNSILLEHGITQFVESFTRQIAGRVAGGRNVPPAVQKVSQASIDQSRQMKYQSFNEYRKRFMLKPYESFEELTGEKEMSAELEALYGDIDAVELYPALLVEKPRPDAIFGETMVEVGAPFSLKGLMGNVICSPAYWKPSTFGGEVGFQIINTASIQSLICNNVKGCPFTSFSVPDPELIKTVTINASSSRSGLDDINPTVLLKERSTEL
Put plainly: cell-free COX–2 enzyme assay (PGE2 formation, LC-MS). The data set is classed as biochemical. As to conditions: for IC50 / IC50 (95% CI), COX–2 enzyme assay: calculated based on PGE2, n = 3; for IC50: read-out: IC50 (95% CI), COX–2 enzyme assay.
Procedure: (§1) The in vitro assays were performed as described [6, 16, 18] and COX metabolites were quantified by LC-MS [18].
(§2) Primary human monocytes were freshly isolated from human blood. Blood was collected from healthy human subjects after written informed consent was obtained. […] After 24 h, the supernatant was sampled for LC-MS and cells were collected for the COX–2 expression analysis by Western Blotting.
(§3) GraphPad Prism 5.0 (GraphPad Software, San Diego, USA) was used for data analysis, the fitting of dose response curves and calculation of the IC50 values. Statistical differences were determined by Dunnetts test (LPS vs. other groups).

The target of data set [4] is T2, COX–2. The data set is described as follows: PGE2 formation in LPS stimulated primary human monocytes (24 h, LC-MS). In kind it is cell-based. The note with it: for IC50: read-out: IC50 (95% CI), primary monocytes.
Procedure: as §1, §2, §3
In data set [5] the test system is COX–2 protein. The data set is described as follows: COX–2 expression in HCA–7 cells (Western Blot). In kind it is cell-based, human. As to conditions: 24 h, vs. control. For orientation: Immunoblotting shows a protein as a band on a membrane.
Procedure: (§4) HCA–7 cells were incubated with sub-cytotoxic concentrations of the polyphenols dissolved in Tris buffered DMEM medium. Cytotoxicity of the polyphenols was evaluated by the lactate dehydrogenase leakage test (Cyto-Tox-ONE, Promega Mannheim, Germany). After 24 h the supernatant was collected for LC-MS analysis and the cells were harvested to analyze the COX–2 expression by Western Blotting.
In data set [6] the test system is COX–2 protein. As to conditions: cited from earlier work.
Data set [7] deals with T2, COX–2. Put plainly: PGE2 formation in HCA–7 cells (24 h, LC-MS). The data set is classed as cell-based. The note with it: for IC50 (95% CI), HCA-7 cell line: calculated based on PGE2, n = 3, 24 h; for changes of PGE2 formation in HCA–7 cells: non-cytotoxic concentrations, 24 h.
Procedure: as §1, §4
After 24 h, the supernatant was sampled for LC-MS and cells were collected for the COX–2 expression analysis by Western Blotting.
as §3
Data set [8] concerns COX–2 protein. The data set is described as follows: COX–2 expression in LPS stimulated primary human monocytes (Western Blot). As to conditions: 24 h, vs. control.
Procedure: as §2
The mark [9] stands for this setting: LPS stimulated, calculated based on PGE2, n = 3, 24 h.

Several values for one entry are separate records, joined by “and”; a condition that tells them apart may be missing. Equal values may be shown once. Entries after “also recorded” stand apart in the source; their conditions may differ.

What is called IC50 is the point on the concentration scale where inhibition reaches its midpoint. As for `O=C(O[C@@H]1Cc2c(O)cc(O)cc2O[C@@H]1c1cc(O)c(O)c(O)c1)c1cc(O)c(O)c(O)c1` [EGCG, epigallocatechingallat], the “PGE2 formation / levels, RAW 264.7 cells” value in the data set on COX–2 [1] is “lack of effect”. Also, the maximal plasma concentrations in [2] (in vivo) was 0.13 to 0.33 µM. Also, on ovine recombinant COX–1, the “effect on COX–1 dependent PGE2 formation, cell-free enzyme assay” value is on record as “dose-dependently decreased; also recorded: inhibited” and the IC50 was 17 µM. Also, on COX–2 [3], the “effect on COX–2 dependent PGE2 formation, cell-free enzyme assay” value is “dose-dependently decreased; also recorded: inhibited” and the half-maximal inhibitory concentration (IC50) was 32 µM. The “IC50 (95% CI), primary monocytes” value on COX–2 [4] (setting [9]) is reported as “no effect(up to 10 μM)”. For the same molecule, the “COX-2 Expression, HCA-7 cell line” value with COX–2 protein [5] is listed as “no effect(up to 10 μM)”. In addition, the “COX–2 (protein) levels, RAW 264.7 cells” value with COX–2 protein [6] is reported as “slight increase”. At COX–2 [7], the “IC50 (95% CI), HCA-7 cell line” value is on record as “no effect (up to 10 μM)” and the “changes of PGE2 formation in HCA–7 cells” value was “no or only slight”. Besides, the “COX-2 Expression, primary monocytes” value in the data set on COX–2 protein [8] was “Decreased COX–2 protein levels and 10 μM:COX–2 ↓”.
In general, inhibition refers to the relative decrease from the control value, in per cent. Take `O=C1C[C@@H](c2ccc(O)cc2)Oc2cc(O)cc(O)c21` [Naringenin, naringenin]: the “plasma peak level, total naringenin (free and conjugated form)” value in [2] (humans, ingestion of grapefruit juice (0.2 g total naringenin)) is 6 µM. Further, the “effect on COX–1 dependent PGE2 formation, cell-free enzyme assay” value at ovine recombinant COX–1 was “no effect”. Also, the “IC50 (95% CI), COX–1 enzyme assay” value on ovine recombinant COX–1 is recorded as “no effect (up to 100 μM)”. Moreover, the “effect on COX–2 dependent PGE2 formation, cell-free enzyme assay” value on COX–2 [3] is reported as “no effect”. Further, the “IC50 (95% CI), COX–2 enzyme assay” value at COX–2 [3] was “no effect (up to 100 μM)”. The IC50 at COX–2 [4] (setting [9]) is 29 µM. Moreover, the “COX-2 Expression, HCA-7 cell line” value in the data set on COX–2 protein [5] is given as 100 μM:COX–2 ↓; in the data set with COX–2 protein [5] (listed as naringenin), “decreased COX–2 expression”. Further, the “COX–2 protein levels, LPS stimulated RAW 264.7 cells” value in the data set on COX–2 protein [6] was “decreased COX–2 protein levels”. Also, the inhibition at 100 µM at COX–2 [7] (HCA-7, 100 μM, read-out: inhibition, HCA-7 cell line) came out at 53%. For the same molecule, on COX–2 [7], the “changes of PGE2 formation in HCA–7 cells” value is given as “affected”. The “COX-2 Expression, primary monocytes” value is reported as 100, 30 μM:COX–2 ↓ with COX–2 protein [8] and “Decreased COX–2 protein levels” in the data set on COX–2 protein [8] (listed as naringenin).
Regarding `COc1ccc(-c2cc(=O)c3c(OC)c(OC)c(OC)c(OC)c3o2)cc1OC` [Nobiletin, nobiletin], at ovine recombinant COX–1, the “effect on COX–1 dependent PGE2 formation, cell-free enzyme assay” value is recorded as “no effect” and the “IC50 (95% CI), COX–1 enzyme assay” value is “no effect (up to 100 μM)”. On COX–2 [3], the “effect on COX–2 dependent PGE2 formation, cell-free enzyme assay” value is listed as “no effect” and the “IC50 (95% CI), COX–2 enzyme assay” value is given as “no effect (up to 100 μM)”. Further, on COX–2 [4] (setting [9]), the IC50 was 24 µM. Moreover, the “COX-2 Expression, HCA-7 cell line” value in the data set with COX–2 protein [5] is recorded as 100 μM:COX–2 ↓. Also, the “COX-2 Expression, HCA-7 cell line” value in the data set on COX–2 protein [5] (listed as nobiletin) is on record as “decreased COX–2 expression”. Also, the “COX–2 protein levels, LPS stimulated RAW 264.7 cells” value in the data set with COX–2 protein [6] is reported as “decreased COX–2 protein levels”. Further, the “changes of PGE2 formation in HCA–7 cells” value at COX–2 [7] was “no or only slight; also recorded: affected”. Besides, at COX–2 [7] (up to 100 μM), the “inhibition, HCA-7 cell line” value is given as “inhibition < 50%(up to 100 μM)”. Moreover, in the data set on COX–2 protein [8], the “COX-2 Expression, primary monocytes” value was “no effect(up to 100 μM)”.
For the molecule `COc1c(O)cc(O)c2c(=O)cc(-c3ccccc3)oc12` [Wogonin, wogonin], the IC50 in the data set with COX–2 [1] (read-out: IC50, LPS stimulated murine macrophages) was 0.3 µM. Also, at ovine recombinant COX–1, the “effect on COX–1 dependent PGE2 formation, cell-free enzyme assay” value is “no effect” and the “IC50 (95% CI), COX–1 enzyme assay” value is given as “no effect (up to 100 μM)”.
Consider hopeaphenol, for which, on ovine recombinant COX–1, the “effect on COX–1 dependent PGE2 formation, cell-free enzyme assay” value was “dose-dependently decreased; also recorded: inhibited” and the IC50 was 4 µM. For the same molecule, at COX–2 [3], the “effect on COX–2 dependent PGE2 formation, cell-free enzyme assay” value is “dose-dependently decreased; also recorded: inhibited” and the IC50 was 22 µM. Moreover, the “inhibition, primary monocytes” value against COX–2 [4] (up to 1 μM) was “inhibition < 50% (up to 1 μM)”. In addition, in the data set on COX–2 protein [5], the “COX-2 Expression, HCA-7 cell line” value was “no effect (up to 1 μM)”. Further, on COX–2 [7], the “IC50 (95% CI), HCA-7 cell line” value was “no effect (up to 1 μM)” and the “changes of PGE2 formation in HCA–7 cells” value was “no or only slight”. Also, in the data set with COX–2 protein [8], the “COX-2 Expression, primary monocytes” value is 1 μM: COX–2 ↓. Also, the “COX-2 Expression, primary monocytes” value in the data set with COX–2 protein [8] (listed as hopeaphenol) was “Decreased COX–2 protein levels”.
